Measurements as given in PubChem BioAssay (NCI).
Values joined by “and” are separate entries in the source; they are usually repeats but may differ in a detail not shown here. Identical values can stand only once.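 Test compounds were applied to cells in 96-well plates for 48 hours at 5 doses. Here, GI50 denotes the concentration required for 50% inhibition of growth. Definition used: TGI = concentration required for complete inhibition of growth.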

Test system: MDA-MB-468 breast
Test: growth of human tumour cells (NCI), 48 h

Structure (SMILES) | GI50 | TGI
CCN(CC)c1ccc(-c2cc(-c3cc(OC)c(OC)c(OC)c3)nc(N3CCC(O)CC3)c2C#N)cc1 | 0.987 µM | 3.21 µM
NCCCNc1nc2ccccc2c2c(=O)c3cccc(Cl)c3sc12 | 0.837 µM | 2.25 µM
COc1ccc(-c2cc(-c3ccc(Cl)cc3)nc(NCCCCNc3ccnc4cc(Cl)ccc34)n2)cc1 | 1.72 µM | 4.3 µM
CCN(CC)CCN1c2nc3ccccc3cc2Sc2cc3ccccc3nc21 | 1.79 µM | 5.33 µM
O=C(Nc1cc(F)c(F)cc1C(=O)O)c1ccc(-n2ccnc2)nn1 | > 100 µM | > 100 µM
Fc1ccc(-c2nn3ccccc3c2-c2ccncc2)cc1 | 11 µM | > 25 µM
O=C1Nc2ccccc2/C1=C\c1nc(-c2ccccc2F)n2ccccc12 | 1.54 µM | 5.51 µM
N=C(N)c1ccc(-c2ccc(-c3ccc4ccccc4c3)s2)s1 | 2.38 µM | 5.2 µM
Cc1nc2sc3c(N)ncnc3c2c(C)c1C | > 25 µM | > 25 µM
COc1ccc(S(=O)(=O)Nc2c(/C=C\c3cc(OC)c(OC)c(OC)c3)ccc(OC)c2O)cc1 | 0.0439 µM | 17.6 µM
CCN1C(=O)N(CC)C2C1NN=c1s/c(=C3\C(=O)N(C4CCCC4)c4ccccc43)c(=O)n12 (configuration not stated) | 0.325 µM | 2.45 µM
CCOc1ccc(C(C[N+](=O)[O-])Sc2ccccc2N)cc1 (configuration not stated) | 2.11 µM | 4.79 µM
Cn1cc(C2=C(c3cn(CCCN)c4ccccc34)C(=O)NC2=O)c2ccccc21 | 3.7 µM | 7.94 µM
O=C(/C=C/c1ccccn1)c1ccc(OCc2nnc(-c3ccc(Cl)cc3)o2)cc1 | 1.71 µM | 3.56 µM
COc1ccc(C(=O)c2cc3c(N)c(C(=O)Nc4cccc(Br)c4C)sc3nc2C)cc1 | 0.0404 µM | 
CN(C)Cc1ccc(NC(=O)c2cncc(C#Cc3cnc(N)c4ncccc34)c2)cc1F | 7.72 µM | 25.7 µM
C=C1C(=O)O[C@H]2[C@H]1CC/C(COC(=O)/C=C\C(=O)NCc1ccc(Cn3c(=O)sn(CCI)c3=O)cc1)=C\CC[C@@]1(C)O[C@@H]21 | 2.39 µM | 5.85 µM
COc1ccc2c(O)c(/C=C3\N=Nc4ncccc43)oc2c1C[C@@H]1CCNC[C@H]1F | 0.308 µM | 1.43 µM
Clc1ccc2c(c1)N(C1CCCN(Cc3ccccc3)C1)c1ccccc1S2 (configuration not stated) | 2.69 µM | 9.51 µM
COc1ccc(C2C(C#N)=C(N)Oc3c2sc2c(Br)cccc32)cc1 (configuration not stated) | 1.86 µM | 5.55 µM
CCCCOc1ccc(/C=N/Nc2cc(C)nc3ccc(Br)cc23)cc1 | 1.67 µM | 3.22 µM

Structure (SMILES) | GI50 | TGI
c1ccc(Oc2ccc(Nc3ncc(-c4ccccc4)o3)cc2)cc1 | > 25 µM | > 25 µM
Nc1ncc(-c2ccc3ncnc(N4CCc5ccc(Cl)cc54)c3c2)cc1C(F)(F)F | 0.299 µM | 2.68 µM
Clc1cccc(CNc2c3ccccc3nc3ccccc23)c1 | 1.28 µM | 3.13 µM
Cn1c(=O)c(Oc2ccc(F)cc2F)cc2cnc(N[C@@H]3CCOC3)nc21 | > 25 µM | > 25 µM
O=C1Cc2cc(CCn3cncn3)c(Cl)cc2N1 | 2.18 µM | 9.54 µM
COc1cc2ncnc(Nc3ccc(Oc4ccnc(C)c4)c(C)c3)c2cc1NC(=O)CC1CCSS1 (configuration not stated) | 0.784 µM | 1.73 µM
CCCCCCCCCCNCCSS(=O)(=O)O | 2.45 µM | 6.28 µM
Cc1ccc(Cl)c(NS(=O)(=O)c2ccc(-c3cnc(C4CC4)o3)cc2)c1 | 0.0452 µM | 7.11 µM
C#C[C@@]1(O)[C@@H](CO)O[C@@H](n2cc(C(F)(F)F)c3c(N)ncnc32)[C@@H]1O | 0.28 µM | 1.9 µM
N#Cc1nc(C#N)c(Sc2ccccc2)c(Sc2ccccc2)c1Sc1ccccc1 | 1.91 µM | 5.8 µM
COc1ccccc1[As]=[As]c1ccccc1OC (configuration not stated) | 0.0199 µM | 0.0474 µM
Oc1[nH]c2ccccc2c1/C=c1/ccc2c(c1)N=C(c1ccc(C(F)(F)F)cc1)N=2 | 2.39 µM | 14.7 µM
CC[C@H](C)[C@H](NC(=O)[C@H]1CCCCN1C)C(=O)N(C)[C@H](C[C@@H](OC(C)=O)c1cccc(C(=O)N[C@@H](Cc2ccccc2)C[C@H](C)C(=O)O)n1)C(C)C | 0.000353 µM and 0.0025 µM | 
c1ccc(-c2n(Cc3ccc4ccccc4c3)c3ccccc3[n+]2Cc2ccc3ccccc3c2)cc1 | 0.134 µM | 0.703 µM
C=CCNC1=C2C[C@@H](C)C[C@H](OC)[C@H](O)[C@@H](C)/C=C(\C)[C@H](OC(N)=O)[C@@H](OC)/C=C\C=C(/C)C(=O)NC(=CC1=O)C2=O | 0.209 µM | 1.83 µM
COc1cc(-c2nc3ccccc3o2)cc(CN2CCCCC2)c1O | 3.24 µM | 22.8 µM
O=C(NCCOCCOCCOCCNC(=O)c1cc2c(o1)C(=O)c1ccccc1C2=O)NC12CC3CC(CC(C3)C1)C2 | 1.08 µM | 4.37 µM
CNC(=O)c1c(F)cccc1Nc1nc(Nc2cc3c(cc2OC)CCN3C(=O)CN(C)C)nc2[nH]ccc12 | 2.34 µM | 8.85 µM
Nc1cc(F)ccc1NC(=O)c1ccc(NC(=O)C/C=C/c2cccnc2)cn1 | 0.911 µM | 2.5 µM
CCC(=O)N1C/C(=C/c2ccc(Br)cc2)C(=O)/C(=C/c2ccc(Br)cc2)C1 | 0.371 µM | 1.23 µM
CS(=O)(=O)c1cccc(Nc2ncc3cc(-c4ccccc4Cl)ccc3n2)c1 | 2.07 µM | 19.6 µM
